Results taken from patent US7582424B2 (priority 2000, dated 2009).

Key:
[1] = system: Ace-induced Isc response by T84 cell monolayers; test: cells; type: cell-based, human
polarized T84 cells = conditions: cited from earlier work
[2] = system: ACE-stimulated Isc in 16HBE14o- cell monolayers; type: cell-based, human
T84 cell monolayers = type: cell-based, human
cAMP = type: cell-based
cGMP = type: cell-based
chloride secretion = conditions: cited from earlier work

For CC(=O)OCOC(=O)CN(CC(=O)OCOC(C)=O)c1ccccc1OCCOc1ccccc1N(CC(=O)OCOC(C)=O)CC(=O)OCOC(C)=O [BAPTA, 1,2-bis(2-aminophenoxy)ethane-N,N,N′,N′-tetraacetic acid (BAPTA)-AM], the “effect on Ace-induced Isc” value [1] was “near ablation”.
For O=S(=O)(O)c1cc(N=C=S)ccc1C=Cc1ccc(N=C=S)cc1S(=O)(=O)O.[Na] [DIDS, 4,4′-diisothiocyanostilbene-2,2′-disulfonic acid, sodium], the “inhibition of forskolin-induced Isc response” value (polarized T84 cells) is listed as 40%, the “inhibition of thapsigargin-induced Isc response” value (polarized T84 cells) is listed as 100% and the inhibition at 500 µM ([1]; Homo sapiens, T84, read-out: inhibition of the Ace-induced Isc response) is listed as 50%. The “decrease in ACE-stimulated Isc” value [2] was 40%.
With CCCCNc1cc(C(=O)O)cc(S(N)(=O)=O)c1Oc1ccccc1 [bumetanide] the “effect on Ace action when added after Ace” value [1] was “reverses”, the inhibition at 100 µM ([1]; Homo sapiens, T84, read-out: inhibition of the action of Ace (Isc)) was about 60% and the “effect by itself on Isc or PD” value (T84 cell monolayers) was “no effect”.
With C[N+](C)(C)CCOC(N)=O [carbachol] the “effect on cellular cAMP” value (cAMP) was “no significant effect”, the “effect of carbachol pretreatment on thapsigargin-induced chloride secretion (Isc response)” value (T84 cell monolayers) was “blocks” and the “peak Isc, agent alone” value (T84 cell monolayers) was 9.8±1.1 μAmp/cm^2. For the same compound, the “return of Isc nearly to baseline” value (T84 cell monolayers) was at most 10 min, the “time of peak Isc, agent alone” value (T84 cell monolayers) was 4 min and the “effect on cellular cGMP” value (cGMP) was “no significant effect”.
In the case of Clc1ccccc1C(c1ccccc1)(c1ccccc1)n1ccnc1 [clotrimazole], the “reduction in Ace-stimulated Isc” value [1] is given as 92% and the “inhibition of carbachol-dependent secretion” value (chloride secretion) is given as 84%.
In the case of O=C1CN(/N=C/c2ccc(-c3ccc([N+](=O)[O-])cc3)o2)C(O)=N1 [dantrolene], the inhibition at 50 µM ([1]; Homo sapiens, T84, read-out: inhibition of Ace-induced Isc response) is reported as about 70%.
In the case of C=C[C@@]1(C)CC(=O)[C@]2(O)[C@@]3(C)[C@@H](O)CCC(C)(C)[C@@H]3[C@H](O)[C@H](OC(C)=O)[C@@]2(C)O1 [forskolin], the “mean peak Isc, forskolin followed by carbachol” value (T84 cell monolayers) is reported as 69.3±2.4 μAmps/cm^2, the “predicted additive effect, forskolin and carbachol, mean peak Isc” value (T84 cell monolayers) is reported as 49.0±2.9 and the “effect on cellular cGMP” value (cGMP) is reported as “no effect”.
With O=c1c(-c2ccc(O)cc2)coc2cc(O)cc(O)c12 [genistein] the “effect on the Isc response to Ace” value [1] was “no effect”.
For C[C@@H]1O[C@@H](O[C@H]2C[C@@H](O)[C@]3(CO)[C@H]4[C@H](O)C[C@]5(C)[C@@H](C6=CC(=O)OC6)CC[C@]5(O)[C@@H]4CC[C@]3(O)C2)[C@H](O)[C@H](O)[C@H]1O [ouabain], the “effect on Ace-induced Isc” value [1] was “inhibits and reverses”.
In the case of C/C=C(/C)C(=O)O[C@H]1C(C)=C2[C@H]([C@@H]1OC(=O)CCCCCCC)[C@@](C)(OC(C)=O)C[C@H](OC(=O)CCC)[C@@]1(O)[C@H]2OC(=O)[C@@]1(C)O [thapsigargin], the “mean peak Isc, agent alone” value (T84 cell monolayers) is reported as 10.2±4.3.
For COc1ccc(CCN(C)CCCC(C#N)(c2ccc(OC)c(OC)c2)C(C)C)cc1OC (centres unmarked) [verapamil], the “effect on Ace-induced Isc response” value [1] was “no significant effect”.
With NPPB the “decrease in ACE-stimulated Isc” value [2] was about 80%.
With ω-conotoxin the “effect on Ace-induced Isc response” value [1] was “no significant effect”.
